Our source for the IC50 values is patent US9676714B2, “Sulfonylindole derivatives and method for preparing the same” (Daewoong Pharmaceutical Co., Ltd., priority 2013, dated 2017).

The IC50 is the point on the concentration scale where inhibition reaches its midpoint. Lower therefore signals inhibition by little substance.

Counter-ions that a name gives are not always drawn.

The target in the test is T1, proton pump (H+/K+-ATPase) (Sus scrofa, UniProt P19156).
T1 construct: Gastric vesicles were prepared from hog stomach via centrifugal separation; from tissue; host or cells: hog stomach (gastric vesicles, method of Rabon et al. 1988)
T1 sequence (P19156 whole entry): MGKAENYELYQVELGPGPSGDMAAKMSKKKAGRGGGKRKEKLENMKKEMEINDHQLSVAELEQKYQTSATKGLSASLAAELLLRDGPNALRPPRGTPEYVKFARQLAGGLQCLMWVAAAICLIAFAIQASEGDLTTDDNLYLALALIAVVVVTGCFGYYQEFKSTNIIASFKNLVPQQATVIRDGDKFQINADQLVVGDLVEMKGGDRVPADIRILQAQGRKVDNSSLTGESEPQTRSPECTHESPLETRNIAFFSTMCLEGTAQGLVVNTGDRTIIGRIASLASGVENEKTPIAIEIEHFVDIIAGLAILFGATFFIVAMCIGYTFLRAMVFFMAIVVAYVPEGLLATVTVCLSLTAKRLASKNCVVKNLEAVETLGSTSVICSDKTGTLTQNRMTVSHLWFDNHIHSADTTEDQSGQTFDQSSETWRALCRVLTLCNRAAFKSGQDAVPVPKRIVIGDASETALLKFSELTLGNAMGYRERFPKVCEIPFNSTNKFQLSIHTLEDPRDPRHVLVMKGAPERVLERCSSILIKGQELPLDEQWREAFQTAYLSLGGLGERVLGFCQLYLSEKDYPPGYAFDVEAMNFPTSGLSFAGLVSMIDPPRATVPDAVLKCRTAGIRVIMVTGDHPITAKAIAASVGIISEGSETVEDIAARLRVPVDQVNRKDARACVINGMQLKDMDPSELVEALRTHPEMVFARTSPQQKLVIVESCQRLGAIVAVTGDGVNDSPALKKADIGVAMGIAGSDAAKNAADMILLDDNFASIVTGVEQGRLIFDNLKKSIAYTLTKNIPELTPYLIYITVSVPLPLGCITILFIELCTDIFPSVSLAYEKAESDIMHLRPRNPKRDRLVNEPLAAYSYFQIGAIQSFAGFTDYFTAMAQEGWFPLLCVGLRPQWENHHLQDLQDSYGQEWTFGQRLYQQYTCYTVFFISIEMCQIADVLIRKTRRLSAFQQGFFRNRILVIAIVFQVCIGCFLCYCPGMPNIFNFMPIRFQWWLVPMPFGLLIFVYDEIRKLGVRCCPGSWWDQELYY
T1 sequence (P18434 whole entry partner): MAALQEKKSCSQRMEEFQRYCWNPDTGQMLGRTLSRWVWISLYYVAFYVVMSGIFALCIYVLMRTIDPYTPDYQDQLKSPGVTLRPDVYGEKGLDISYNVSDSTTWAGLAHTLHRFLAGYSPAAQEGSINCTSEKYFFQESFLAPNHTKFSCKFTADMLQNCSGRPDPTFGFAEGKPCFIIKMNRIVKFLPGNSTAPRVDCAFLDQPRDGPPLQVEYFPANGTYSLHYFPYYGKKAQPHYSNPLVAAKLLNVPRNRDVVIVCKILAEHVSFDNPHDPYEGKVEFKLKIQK
Put plainly: Measurement of inhibitory effects on proton pump (H+/K+-ATPase) activities. It is filed as biochemical. The note with it: hog gastric vesicles, K+-specific H+/K+-ATPase activity, Tris-HCl buffer pH 7.4, 37° C. for 40 minutes, malachite green Pi readout. Summed up: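 Hog gastric vesicles in 60 mmol/l Tris-HCl pH 7.4 with 0.5% DMSO were treated with compounds at room temperature; reaction was started with 10 μl of 10 mmol/l ATP stock. Released Pi was read at 570 nm, K+-specific activity taken as the ±K+ difference. IC50 from 4-parameter logistic fit.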
With `CNCc1cn(S(=O)(=O)c2cccc(F)c2)c2cc(Cc3ccc(C)c(F)c3F)ccc12` [Example 287, 1-(6-(2,3-difluoro-4-methylbenzyl)-1-((3-fluorophenyl)sulfonyl)-1H-indol-3-yl)-N-methylmethanamine], 1670 nM corresponded to half-maximal inhibition (IC50).

The compound `CNCc1cn(S(=O)(=O)c2ccc(OC)nc2)c2cc(Nc3ccc(C)cc3F)ccc12` [Example 242, N-(2-fluoro-4-methylphenyl)-1-((6-methoxypyridin-3-yl)sulfonyl)-3-((methylamino)methyl)-1H-indol-6-amine hydrochloride] registered a half-maximal inhibitory concentration (IC50) of 3850 nM.

As to `CNCc1cn(S(=O)(=O)c2cccc(OC(F)(F)F)c2)c2cc(Nc3ccc(OC(F)(F)F)cc3Cl)ccc12` [Example 201, N-(2-chloro-4-(trifluoromethoxy)phenyl)-3-((methylamino)methyl)-1-((3-(trifluoromethoxy)phenyl)sulfonyl)-1H-indol-6-amine hydrochloride], the IC50 was 660 nM.

Regarding `CNCc1cn(S(=O)(=O)c2cccc(OC)c2)c2cc(Nc3ccc(C(F)(F)F)cc3Cl)ccc12` [Example 166, N-(2-chloro-4-(trifluoromethyl)phenyl)-1-((3-methoxyphenyl)sulfonyl)-3-((methylamino)methyl)-1H-indol-6-amine hydrochloride], half-maximal inhibition (IC50) was put at 340 nM.

Regarding `CNCc1cn(S(=O)(=O)c2cccc(OC(F)F)c2)c2cc(Nc3ccc(Cl)cc3C(F)(F)F)ccc12` [Example 177, N-(4-chloro-2-(trifluoromethyl)phenyl)-1-((3-(difluoromethoxy)phenyl)sulfonyl)-3-((methylamino)methyl)-1H-indol-6-amine hydrochloride], the IC50 worked out at 1410 nM.

For `CNCc1cn(S(=O)(=O)c2cccc(OC(F)F)c2)c2cc(-c3cncnc3)ccc12` [Example 264, 1-(1-((3-(difluoromethoxy)phenyl)sulfonyl)-6-(pyrimidin-5-yl)-1H-indol-3-yl)-N-methylmethanamine hydrochloride], the IC50 was 20000 nM.

As for `CNCc1cn(S(=O)(=O)c2cccnc2)c2cc(Nc3c(Cl)cc(F)cc3Cl)ccc12` [Example 84, N-(2,6-dichloro-4-fluorophenyl)-3-((methylamino)methyl)-1-(pyridin-3-ylsulfonyl)-1H-indol-6-amine hydrochloride], inhibition was half-maximal at 530 nM (IC50).

On to `CNCc1cn(S(=O)(=O)c2cccnc2)c2cc(Nc3ccc(Cl)nc3Cl)ccc12` [Example 119, N-(2,6-dichloropyridin-3-yl)-3-((methylamino)methyl)-1-(pyridin-3-ylsulfonyl)-1H-indol-6-amine hydrochloride], for which the IC50 is 480 nM.

Take `CNCc1cn(S(=O)(=O)c2cccnc2)c2cc(Nc3ccc(C)nc3C(F)(F)F)ccc12` [Example 115, N-(6-methyl-2-(trifluoromethyl)pyridin-3-yl)-3-((methylamino)methyl)-1-(pyridin-3-ylsulfonyl)-1H-indol-6-amine hydrochloride]: the midpoint of inhibition, the IC50, lay at 1300 nM.

`CNCc1cn(S(=O)(=O)c2cccc(Cl)c2)c2cc(Nc3ccc(Cl)cc3F)ccc12` [Example 150, N-(4-chloro-2-fluorophenyl)-1-((3-chlorophenyl)sulfonyl)-3-((methylamino)methyl)-1H-indol-6-amine hydrochloride] had an IC50 of 570 nM.

As to `CNCc1cn(S(=O)(=O)c2cccc(C(F)(F)F)c2)c2cc(Nc3ccc(C)nc3Cl)ccc12` [Example 192, N-(2-chloro-6-methylpyridin-3-yl)-3-((methylamino)methyl)-1-((3-(trifluoromethyl)phenyl)sulfonyl)-1H-indol-6-amine hydrochloride], half-maximal inhibition (IC50) required 60 nM.

`CNCc1cn(S(=O)(=O)c2cccnc2)c2cc(Nc3cc(Cl)cc(Cl)c3)ccc12` [Example 64, N-(3,5-dichlorophenyl)-3-((methylamino)methyl)-1-(pyridin-3-ylsulfonyl)-1H-indol-6-amine hydrochloride] had an IC50 of 1840 nM.
